Data: patent publication US9364448B2, “Nitisinone for treatment of oculocutaneous/ocular albinism and for increasing pigmentation” (The United States of America, as represented by the …, priority 2010, dated 2016)

Assays:
[1] = test system: wild-type human melanocytes; assay: Human melanocyte melanin assay, wild-type (control); assay type: cell-based; details: 1 mM tyrosine, about one week
Experimental: (§1) Human melanocyte culture and melanin assay. Human melanocytes were established from skin punch biopsies. Skin specimens were washed with PBS then treated with 0.25% trypsin-EDTA (Gibco 25200) for about 2 hours followed by vigorous vortexing to separate the epidermis. The epidermis was sectioned and attached to scored patches on the bottom of a 6-well polystyrene culture dish before being covered with melanocyte media. About 1000 ml of melanocyte media was made from 950 ml Ham's F10 (Gibco 1550), 25 ml FBS, 5 ug bFGF (Sigma F0291), 10 μg endothelin (Sigma, E7764, Sigma Chemicals, St. Louis, Mo.), 7.5 mg IBMX (Sigma 17018), 30 μg cholera toxin (Sigma C8052), 3.3 μg TPA (Sigma P8139), 10 ml PenStrepGlutamine, 1 ml fungizone and the media was 0.22 μm filtered.
(§2) Melanocytes were plated on 6 well dishes and grown to confluency. Melanin assays were run in triplicate by supplementing three wells per plate with 1 mM tyrosine (Sigma T8566), using the remaining 3 wells as untreated controls. Treatment time was approximately one week. […] The OD475 was measured and converted to melanin content via a standard curve using synthetic melanin (Sigma M0418). The data were normalized to protein content, determined using a bicinchoninic (BCA) assay kit (BioRad, Inc., Hercules, Calif.). Differences between treated and untreated measurements were analyzed with a two-tailed unpaired t-test. […]

[2] = test system: melanocytes from an OCA-1A patient; assay: Human melanocyte melanin assay, OCA-1A patient; assay type: cell-based; details: presence or absence of 1 mM tyrosine
Experimental: as §1, §2

[3] = affected individuals, oral dosing; cited from earlier work
[4] = test system: male Alpk:ApfCD-1 albino mice; details: cited from earlier work
Tyr^c-h/c-h pups = assay: Prenatal NTBC treatment of pregnant Tyr^c-h/c-h females, pup examination
Experimental: Drug Dosing and Monitoring. Ten C57BL/6J Tyr^c-2J/c-2J and ten C57BL/6Tyr^c-h/c-h mice, 3-4 months of age were designated for treatment with NTBC (Swedish Orphan Drug, Stockholm, Sweden). An equal number of age-matched controls of each genotype designated to receive vehicle treatment. NTBC was dissolved in 2 M NaOH and brought to neutral pH before administration to mice. Coat color, iris transillumination and fundus appearance were photodocumented prior to treatment. Because pigment deposition in hair is stimulated with new hair growth, a section of each mouse's coat was shaved prior to the beginning of the experiment. Drug or vehicle was given every other day via oral gavages, at a dosage of about 4 mg/kg, in a volume of about 0.2-0.3 ml. […] Coat color, iris transillumination and fundus appearance were photodocumented at the end of 1 month of treatment or vehicle dosing. For prenatal treatment experiments, pregnancy was determined by a maternal weight gain of >2 g over 7-9 days, after observing a vaginal mucus plug. Treatment with 4 mg/kg NTBC was initiated daily at day 9 or 10 of pregnancy by oral gavage, and given until birth of the litter. At that point, every-other-day oral treatment of the mother was initiated until time of weaning.

Structure (SMILES)	Melanin production [1]	Pigment production [2]	Half-life [3] [h]	Tolerated NTBC dose ([4]; male Alpk:ApfCD-1 albino mice, age 3-6 weeks)	NTBC dose at which maximum plasma tyrosine concentrations were achieved ([4]; mice, toxicologic studies (Lock et al.)) [mg/kg]	Fundus appearance of pups, vehicle- vs drug-treated dams (Tyr^c-h/c-h pups; Tyr^c-h/c-h, 4 mg/kg)	Congenital malformations or systemic illnesses in pups of treated mothers (Tyr^c-h/c-h pups; Tyr^c-h/c-h, 4 mg/kg prenatal treatment)	Iris pigmentation of pups on clinical examination (Tyr^c-h/c-h pups; pups of NTBC-treated Tyr^c-h/c-h mothers, 4 mg/kg, near time of weaning)	Coat color of pups (Tyr^c-h/c-h pups; pups of NTBC-treated Tyr^c-h/c-h mothers, 4 mg/kg, vs vehicle-treated mothers)
N[C@@H](Cc1ccc(O)cc1)C(=O)O [tyrosine]	produce significant melanin	did not produce detectable pigment							
O=C1CCCC(=O)C1C(=O)c1ccc(C(F)(F)F)cc1[N+](=O)[O-] [NTBC, 2-(-2-nitro-4 trifluoromethylbenzoyl)-1,3 cyclohexanedione]			50 to 60	up to 160 mg/kg/day	≤ 10	no significant difference	no obvious congenital malformations or systemic illnesses	significant pigmentation	considerably darker
